In PubChem BioAssay AID743125 (Broad Institute, 2013):
Several values for one entry are separate records, joined by “and”; a condition that tells them apart may be missing. Equal values may be shown once. Activity calls are given as the source filed them.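 How the source made its calls: active means fitted AC50 no higher than twice the top valid dose tested for that sample; inconclusive means flat curve between -30 and -70% activity, or poor fit; inactive means the rest.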

These compounds were tested against PglD UDP-4-amino-sugar N-acetyltransferase (Campylobacter jejuni) (assay: inhibition of C. jejuni PglD N-acetyltransferase – biochemical, DTNB absorbance, dry powder samples, set 5, dose response (AID 743125)). Conditions: purified PglD, DTNB absorbance 412 nm, CoA release.
With `COc1cccc(/C=C/c2nc3sc(C(=O)O)c(C)c3c(=O)[nH]2)c1` the AC50 was 11.5 µM.
`Cc1c(C(=O)O)sc2nc(/C=C/c3cccc(N4CCOCC4)n3)[nH]c(=O)c12` was tested, and the AC50 was > 20 µM (inactive).
Compound `Cc1c(C(=O)O)sc2nc(/C=C/c3cccc(=O)[nH]3)[nH]c(=O)c12` has an AC50 of 4.69 µM.
For `Cc1c(C(=O)O)sc2nc(/C=C/c3cccc(N)c3)[nH]c(=O)c12`, the AC50 was 16.9 µM.
Work on `Cc1c(C(=O)O)sc2nc(/C=C/c3ccccc3O)[nH]c(=O)c12` yielded an AC50 of 24.9 µM.
For `Cc1c(C(=O)O)sc2nc(/C=C/c3cccc(OC(F)(F)F)c3)[nH]c(=O)c12`, the AC50 was > 39 µM (inactive).
For `Cc1c(C(=O)O)sc2nc(/C=C/c3cccc(O)c3)[nH]c(=O)c12`, the AC50 was 27.6 µM and 3.61 µM.
For `Cc1c(C(=O)O)sc2nc(/C=C/c3cccc([N+](=O)[O-])c3)[nH]c(=O)c12`, the AC50 was > 39 µM (inactive).
In the case of `Cc1c(C(=O)O)sc2nc(/C=C/c3ccccn3)[nH]c(=O)c12`, the AC50 was 7.09 µM.
Compound `Cc1c(C(=O)O)sc2nc(/C=C/c3ccc4[nH]ccc4n3)[nH]c(=O)c12` has an AC50 of 7 µM.

Same assay, conditions: purified PglD, DTNB absorbance 412 nm, CoA release; at 1 µM (top of the series)
`Cc1c(C(=O)O)sc2nc(/C=C/c3ccc(O)cn3)[nH]c(=O)c12` was tested, and the “activity change, negative = inhibition” value was “inactive”.

Same assay, conditions: purified PglD, DTNB absorbance 412 nm, CoA release; at 10 µM (top of the series)
With `Cc1c(C(=O)O)sc2nc(/C=C/c3cccnc3N)[nH]c(=O)c12` the “activity change, negative = inhibition” value was “inactive”.

Same assay, conditions: purified PglD, DTNB absorbance 412 nm, CoA release; at 38 µM (top of the series)
With `Cc1c(C(=O)O)sc2nc(/C=C/c3cccc(N4CCNCC4)c3)[nH]c(=O)c12` the “activity change, negative = inhibition” value was “inactive”.
